Results: ChEMBL document CHEMBL4811279, “N-Substituted pyrrolopyrimidines and purines as p90 ribosomal S6 protein kinase-2 (RSK2) inhibitors” (Bioorg Med Chem, 2021)

Molecular target: Ribosomal protein S6 kinase alpha-3 (Homo sapiens) (UniProt P51812)
Assay: Inhibition of RSK2 (unknown origin) using Ulight-rpS6 as substrate at 10 uM incubated for 1 hr in presence of ATP by TR FRET assay

Sequence of Ribosomal protein S6 kinase alpha-3 (Homo sapiens) (P51812 whole entry): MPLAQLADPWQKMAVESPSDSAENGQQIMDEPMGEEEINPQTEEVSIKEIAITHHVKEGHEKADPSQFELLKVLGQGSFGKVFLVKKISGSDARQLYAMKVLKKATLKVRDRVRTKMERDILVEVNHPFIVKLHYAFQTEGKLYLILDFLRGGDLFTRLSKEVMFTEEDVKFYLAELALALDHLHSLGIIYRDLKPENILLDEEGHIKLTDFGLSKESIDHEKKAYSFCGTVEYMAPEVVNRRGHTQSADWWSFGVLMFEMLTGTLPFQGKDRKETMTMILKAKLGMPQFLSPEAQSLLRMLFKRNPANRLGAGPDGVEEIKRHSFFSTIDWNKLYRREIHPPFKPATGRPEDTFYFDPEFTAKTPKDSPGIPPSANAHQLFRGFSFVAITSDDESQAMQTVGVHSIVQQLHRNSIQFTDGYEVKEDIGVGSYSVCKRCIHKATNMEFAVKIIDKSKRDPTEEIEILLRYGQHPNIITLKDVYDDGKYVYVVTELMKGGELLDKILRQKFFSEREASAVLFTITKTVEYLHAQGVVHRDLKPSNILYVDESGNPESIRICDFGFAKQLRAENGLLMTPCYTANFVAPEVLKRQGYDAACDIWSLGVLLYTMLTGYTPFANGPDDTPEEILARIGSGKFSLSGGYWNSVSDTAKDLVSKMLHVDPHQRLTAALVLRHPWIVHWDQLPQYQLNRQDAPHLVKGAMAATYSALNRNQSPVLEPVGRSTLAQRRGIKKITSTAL

Compound	inhibition
Oc1c(F)cc(Nc2ncc3ncn(-c4cccc(OCc5ccccc5)c4)c3n2)cc1F	63%
Oc1c(F)cc(Nc2ncc3ncn(-c4ccc(OCc5ccccc5)cc4)c3n2)cc1F	42%
Oc1c(F)cc(Nc2ncc3cc[nH]c3n2)cc1F	77%
Oc1c(F)cc(Nc2ncc3ncn(-c4ccc(-c5ccccc5)cc4)c3n2)cc1F	49%
Oc1c(F)cc(Nc2ncc3nc[nH]c3n2)cc1F	67%
